Measured values published in PubChem BioAssay (NCI).
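GI50 = concentration required for 50% inhibition of growth. TGI: concentration producing complete growth inhibition.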

Key:
Assay in all cases: NCI anticancer screen, dose series, 384-well format
OVCAR-3 ovarian = test system: OVCAR-3 ovarian
CCRF-CEM leukemia = test system: CCRF-CEM leukemia
MALME-3M melanoma = test system: MALME-3M melanoma
MOLT-4 leukemia = test system: MOLT-4 leukemia
M14 melanoma = test system: M14 melanoma
UO-31 renal = test system: UO-31 renal
MCF7 breast = test system: MCF7 breast
DU-145 prostate = test system: DU-145 prostate
UACC-62 melanoma = test system: UACC-62 melanoma
786-0 renal = test system: 786-0 renal
SNB-75 CNS = test system: SNB-75 CNS
NCI-H322M lung = test system: NCI-H322M lung
PC-3 prostate = test system: PC-3 prostate
EKVX NSCLC = test system: EKVX NSCLC
SW-620 colon = test system: SW-620 colon
SK-MEL-5 melanoma = test system: SK-MEL-5 melanoma
RPMI-8226 leukemia = test system: RPMI-8226 leukemia
KM12 colon = test system: KM12 colon
SK-MEL-28 melanoma = test system: SK-MEL-28 melanoma
IGROV1 ovarian = test system: IGROV1 ovarian
HT29 colon = test system: HT29 colon
HCC-2998 colon = test system: HCC-2998 colon
SF-268 CNS = test system: SF-268 CNS
TK-10 renal = test system: TK-10 renal
OVCAR-5 ovarian = test system: OVCAR-5 ovarian
NCI-H226 lung = test system: NCI-H226 lung
NCI-H460 NSCLC = test system: NCI-H460 NSCLC
SN12C renal = test system: SN12C renal
NCI-H23 lung = test system: NCI-H23 lung
HS 578T breast = test system: HS 578T breast
SK-OV-3 ovarian = test system: SK-OV-3 ovarian
U251 glioblastoma = test system: U251 glioblastoma
SK-MEL-2 melanoma = test system: SK-MEL-2 melanoma
K-562 leukemia = test system: K-562 leukemia
MDA-MB-435 melanoma = test system: MDA-MB-435 melanoma
OVCAR-8 ovarian = test system: OVCAR-8 ovarian
SNB-19 CNS = test system: SNB-19 CNS
CAKI-1 renal = test system: CAKI-1 renal
HCT-116 colon = test system: HCT-116 colon
ACHN renal = test system: ACHN renal
RXF 393 renal = test system: RXF 393 renal
NCI-H522 lung = test system: NCI-H522 lung
A549 NSCLC = test system: A549 NSCLC
HOP-92 NSCLC = test system: HOP-92 NSCLC
HOP-62 NSCLC = test system: HOP-62 NSCLC
HCT-15 colon = test system: HCT-15 colon
OVCAR-4 ovarian = test system: OVCAR-4 ovarian
T-47D breast = test system: T-47D breast
NCI/ADR-RES ovarian = test system: NCI/ADR-RES ovarian
A498 renal = test system: A498 renal
LOX IMVI melanoma = test system: LOX IMVI melanoma
COLO 205 colon = test system: COLO 205 colon
BT-549 breast = test system: BT-549 breast
SF-539 CNS = test system: SF-539 CNS
SF-295 CNS = test system: SF-295 CNS
HL-60(TB) leukemia = test system: HL-60(TB) leukemia
MDA-MB-468 breast = test system: MDA-MB-468 breast
MDA-MB-231 breast = test system: MDA-MB-231 breast

Molecule Cn1nccc1Nc1nccc(-c2cc3c(s2)C(C)(C)N(CCN2CCOCC2)C3=O)n1 has a GI50 (OVCAR-3 ovarian) of 51.4 µM, a TGI (OVCAR-3 ovarian) greater than 100 µM and a GI50 (CCRF-CEM leukemia) of 34.2 µM. For the same molecule, the TGI (CCRF-CEM leukemia) was greater than 100 µM, the GI50 (MALME-3M melanoma) was 0.0557 µM and the TGI (MALME-3M melanoma) was 0.296 µM. It also gave a GI50 (MOLT-4 leukemia) of 46 µM, a TGI (MOLT-4 leukemia) greater than 100 µM and a GI50 (M14 melanoma) of 0.157 µM. The TGI (M14 melanoma) was 0.905 µM, the GI50 (UO-31 renal) was 9.2 µM and the TGI (UO-31 renal) was greater than 100 µM. It also gave a GI50 (MCF7 breast) of 21.2 µM, a TGI (MCF7 breast) greater than 100 µM and a GI50 (DU-145 prostate) of 23.6 µM. The TGI (DU-145 prostate) was greater than 100 µM, the GI50 (UACC-62 melanoma) was 0.138 µM and the TGI (UACC-62 melanoma) was 1.76 µM. For the same molecule, the GI50 ([…]-0 renal) was 90.9 µM, the TGI (786-0 renal) was greater than 100 µM and the GI50 (SNB-75 CNS) was greater than 100 µM. For the same molecule, the TGI (SNB-75 CNS) was greater than 100 µM, the GI50 (NCI-H322M lung) was 7.59 µM and the TGI (NCI-H322M lung) was greater than 100 µM. The GI50 (PC-3 prostate) was 55.4 µM, the TGI (PC-3 prostate) was greater than 100 µM and the GI50 (EKVX NSCLC) was greater than 100 µM. It also gave a TGI (EKVX NSCLC) greater than 100 µM, a GI50 (SW-620 colon) of 0.756 µM and a TGI (SW-620 colon) greater than 100 µM. For the same molecule, the GI50 (SK-MEL-5 melanoma) was 0.619 µM, the TGI (SK-MEL-5 melanoma) was greater than 100 µM and the GI50 (RPMI-8226 leukemia) was 2.23 µM. For the same molecule, the TGI (RPMI-8226 leukemia) was 8.87 µM, the GI50 (KM12 colon) was 1.69 µM and the TGI (KM12 colon) was greater than 100 µM. For the same molecule, the GI50 (SK-MEL-28 melanoma) was 0.177 µM, the TGI (SK-MEL-28 melanoma) was 0.797 µM and the GI50 (IGROV1 ovarian) was 3.52 µM. The TGI (IGROV1 ovarian) was greater than 100 µM, the GI50 (HT29 colon) was 0.618 µM and the TGI (HT29 colon) was greater than 100 µM. The GI50 (HCC-2998 colon) was 0.308 µM, the TGI (HCC-2998 colon) was 17.1 µM and the GI50 (SF-268 CNS) was 50.9 µM. The TGI (SF-268 CNS) was greater than 100 µM, the GI50 (TK-10 renal) was 3.46 µM and the TGI (TK-10 renal) was greater than 100 µM. It also gave a GI50 (OVCAR-5 ovarian) of 0.989 µM, a TGI (OVCAR-5 ovarian) greater than 100 µM and a GI50 (NCI-H226 lung) of 14.2 µM. For the same molecule, the TGI (NCI-H226 lung) was greater than 100 µM, the GI50 (NCI-H460 NSCLC) was 4.26 µM and the TGI (NCI-H460 NSCLC) was greater than 100 µM. For the same molecule, the GI50 (SN12C renal) was 39.2 µM, the TGI (SN12C renal) was greater than 100 µM and the GI50 (NCI-H23 lung) was 0.301 µM. The TGI (NCI-H23 lung) was 9.1 µM, the GI50 (HS 578T breast) was 49.4 µM and the TGI (HS 578T breast) was greater than 100 µM. The GI50 (SK-OV-3 ovarian) was 25.2 µM, the TGI (SK-OV-3 ovarian) was greater than 100 µM and the GI50 (U251 glioblastoma) was 25.9 µM. The TGI (U251 glioblastoma) was greater than 100 µM, the GI50 (SK-MEL-2 melanoma) was 0.372 µM and the TGI (SK-MEL-2 melanoma) was 1.45 µM. The GI50 (K-562 leukemia) was 4.74 µM, the TGI (K-562 leukemia) was greater than 100 µM and the GI50 (MDA-MB-435 melanoma) was 0.402 µM. It also gave a TGI (MDA-MB-435 melanoma) of 50.9 µM, a GI50 (OVCAR-8 ovarian) of 34.8 µM and a TGI (OVCAR-8 ovarian) greater than 100 µM. It also gave a GI50 (SNB-19 CNS) of 64.7 µM, a TGI (SNB-19 CNS) greater than 100 µM and a GI50 (CAKI-1 renal) of 3.31 µM. The TGI (CAKI-1 renal) was greater than 100 µM, the GI50 (HCT-116 colon) was 0.404 µM and the TGI (HCT-116 colon) was greater than 100 µM. It also gave a GI50 (ACHN renal) of 16.9 µM, a TGI (ACHN renal) greater than 100 µM and a GI50 (RXF 393 renal) greater than 100 µM. The TGI (RXF 393 renal) was greater than 100 µM, the GI50 (NCI-H522 lung) was 1.65 µM and the TGI (NCI-H522 lung) was 20.8 µM. The GI50 (A549 NSCLC) was 2.45 µM, the TGI (A549 NSCLC) was greater than 100 µM and the GI50 (HOP-92 NSCLC) was 4.27 µM. For the same molecule, the TGI (HOP-92 NSCLC) was greater than 100 µM, the GI50 (HOP-62 NSCLC) was 8.17 µM and the TGI (HOP-62 NSCLC) was greater than 100 µM. The GI50 (HCT-15 colon) was 23.1 µM, the TGI (HCT-15 colon) was greater than 100 µM and the GI50 (OVCAR-4 ovarian) was greater than 100 µM. For the same molecule, the TGI (OVCAR-4 ovarian) was greater than 100 µM, the GI50 (T-47D breast) was greater than 100 µM and the TGI (T-47D breast) was greater than 100 µM. It also gave a GI50 (NCI/ADR-RES ovarian) greater than 100 µM, a TGI (NCI/ADR-RES ovarian) greater than 100 µM and a GI50 (A498 renal) of 5.15 µM. The TGI (A498 renal) was greater than 100 µM, the GI50 (LOX IMVI melanoma) was 0.345 µM and the TGI (LOX IMVI melanoma) was 1.55 µM. It also gave a GI50 (COLO 205 colon) of 0.194 µM, a TGI (COLO 205 colon) of 5.35 µM and a GI50 (BT-549 breast) of 13.8 µM. For the same molecule, the TGI (BT-549 breast) was greater than 100 µM, the GI50 (SF-539 CNS) was 28.2 µM and the TGI (SF-539 CNS) was greater than 100 µM. It also gave a GI50 (SF-295 CNS) greater than 100 µM, a TGI (SF-295 CNS) greater than 100 µM and a GI50 (HL-60(TB) leukemia) of 0.264 µM. It also gave a TGI (HL-60(TB) leukemia) of 10.1 µM, a GI50 (MDA-MB-468 breast) of 19.3 µM and a TGI (MDA-MB-468 breast) of 89 µM. It also gave a GI50 (MDA-MB-231 breast) of 3.5 µM and a TGI (MDA-MB-231 breast) greater than 100 µM.
